Here are results for ten compounds from patent US12268694B2, “Combination pharmaceutical agents as RSV inhibitors” (Enanta Pharmaceuticals, Inc., priority 2017, dated 2025).

Molecules are shown by their SMILES.

For data set [1], the system named is genotype A, "Long" strain RSV. Put plainly: RSV-A assay: CPE protection in HEp-2 cells, ATPlite readout. Format: cell-based, human respiratory syncytial virus. To be noted: human respiratory syncytial virus, HEp-2, read-out: Human RSV-A (“Long” strain) EC50. In a few lines: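 HEp-2 cells (8,000/well) with 2-fold compound dilutions in duplicate, infected with Long-strain RSV at MOI 0.1 and incubated 5 days. Cell ATP measured by ATPlite luminescence to give EC50; uninfected parallel plate gives CC50.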
A general note: ATP-based viability assays read luminescence as a measure of living cells.

The next data set concerns HEp-2 cells. Kind of data set: Cytotoxicity in parallel to the RSV-A assay (no virus), ATPlite readout. Format: cell-based, human. In a few lines: (§1)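 HEp-2 cells at 8,000/well in DMEM with 10% heat-inactivated FBS received 2-fold serial compound dilutions in duplicate and growth media in place of virus. After 5 days cell viability was read as ATP content by ATPlite luminescence to give CC50.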

Data set [2] has as its system RSV genotype B, strain 9320. Put plainly: RSV-B assay: A549 cells infected with RSV-B, qPCR or ATPlite readout. Format: cell-based. To be noted: human respiratory syncytial virus, A549, 144 h, read-out: Human RSV-B EC50. From the text: HEp-2 cells, (originally derived from tumors grown in irradiated-cortisonised weanling rats that had been injected with epidermoid carcinoma tissue from a person's larynx, but later found to be indistinguishable from HeLa cells by PCR DNA analysis), were used for the culturing of genotype B, strain 9320. Flasks were inoculated with RSV-B and viral stocks were collected once cytopathic effect (CPE) was greater than […]. Viral stocks in 25% sucrose media were snap frozen using liquid nitrogen to increase viral stability. Viral stock titers were quantified by tissue culture infectious dose 50% (TCID50) using 8,000 cells per well and 5-fold viral dilutions across a 96-well plate, cultured for 4 days. Viral stock titers were also quantified by a plaque forming unit assay, as described elsewhere.
The assay is run as follows: A549 cells (originally derived through explant culture from a person's carcinomatous lung tissue) are seeded into the inner 60 wells of a 96-well plate at 3,000 cells per well in a volume of 50 μL using A549 growth media (F-12K Media, 1% Penn/Strep, 1% nonessential amino acids, 10% heat-inactivated FBS). 2-fold serial dilutions of control and test compounds are added to the wells in duplicate in a total volume of 25 μL. Viral stock is then added to the wells at a multiplicity of infection (MOI) of 0.5 in a volume of 25 μL, bringing the total volume of each well to 100 μL. The MOI is calculated using the PFU/mL, or TCID50 if unavailable. Each 96-well plate has a control column of 6 wells with cells and virus but no compound (negative control, max CPE), a column with cells but no compound or virus (positive control, minimum CPE), and a column with no cells or virus or compound (background plate/reagent control). The control wells with cells but no virus are given an additional 25 μL of growth media containing an equal quantity of sucrose as those wells receiving the viral stock in order to keep consistent in media and volume conditions. The outer wells of the plate are filled with 125 μL of moat media (DMEM, 1% Penn/Strep) to act as a thermal and evaporative moat around the test wells. 6 days post infection, the plates are read using qPCR or ATP lite (50 μL added per well), which quantifies the amount of ATP (a measure of cell health) present in each well. Assay plates treated with APTlite are read using the Envision luminometer. […] EC50 ranges are as follows: A <0.4 μM; B 0.4-0.8 μM; C >0.8 μM.

Data set [3] is described as follows: Cytotoxicity in parallel to the RSV-A assay (no virus), ATPlite readout. To be noted: human, HEp-2 cells (uninfected). Format: cell-based, human. In a few lines: as §1

As a reminder, the EC50 is the concentration needed to bring the measured effect to its halfway point. A word on the CC50: it is the concentration at which the toxic effect on the cells reaches its halfway point. A high value points to better tolerance by the cells. As to `O=C1Nc2ccccc2C(c2ccccc2)=N[C@@H]1Nc1nnc(-c2ccc(F)cc2)o1` [Example 7a], the values for the EC50 in data set [1] and in data set [2] were 400 to 800 nM and greater than 800 nM, respectively. The compound further yielded a CC50 with HEp-2 cells greater than 50000 nM.
For the compound `O=C1Nc2ccccc2C(c2ccccc2)=NC1Nc1nnc(-c2ccc3ncsc3c2)o1` (stereo not drawn) [Example 42], the EC50 in data set [1] lay within 400 to 800 nM. For the same compound, the CC50 at 5 days in data set [3] is greater than 50000 nM.
Regarding `O=C1Nc2ccccc2C(c2ccccc2)=NC1Nc1nnc(-c2ccc(-n3cccn3)cc2)[nH]1` (stereo not drawn) [Example 364], the figures for the EC50 in data set [1] and in data set [2] were less than 400 nM and 400 to 800 nM, respectively.
The matching figures for `N#Cc1ccc(-c2ccc(NC3N=C(c4ccccc4)c4ccccc4NC3=O)nn2)cc1` (stereo not drawn) [Example 377]: less than 400 nM and less than 400 nM.
For `CCc1nc(-c2nnc(N[C@H]3N=C(c4ccccc4)c4ccccc4NC3=O)o2)c(N2CCOCC2)s1` [Example 385], in that order: less than 400 nM and less than 400 nM.
The matching figures for `O=C1Nc2ccccc2C(c2ccccc2)=N[C@@H]1Nc1nnc(-c2nc(C3CCC3)sc2N2CCOCC2)o1` [Example 387]: less than 400 nM and less than 400 nM.
Consider `O=C1Nc2ccccc2C(c2ccccc2)=N[C@@H]1Nc1nnc(-c2nc(-c3cccnc3)sc2N2CCOCC2)o1` [Example 388], for which the concentration for a half-maximal effect (EC50) in data set [1] and in data set [2] was less than 400 nM in each case.
In the case of `CC(C)n1cc(-c2nnc(N[C@H]3N=C(c4ccccc4)c4ccccc4NC3=O)o2)c(N2CCOCC2)n1` [Example 403], the concentration giving a half-maximal response (EC50) in data set [1] and in data set [2] was less than 400 nM each time.
`CC(F)(F)c1nc(-c2nnc(N[C@H]3N=C(c4ccccc4)c4ccccc4NC3=O)o2)c(N2CCOCC2)s1` [Example 407]: the EC50 in data set [1] and in data set [2] was less than 400 nM in each case.
As for `O=C1Nc2ccccc2C(c2ccccc2)=N[C@@H]1Nc1nnc(-c2nc(-c3ccncc3)sc2N2CCOCC2)o1` [Example 429], the EC50 in data set [1] and in data set [2] was less than 400 nM in each case.
